This is an account of results in patent publication US20080021107A1, “USE OF AMINO ACIDS FOR TREATMENT OF VARIOUS CONDITIONS” (UNIVERSITY OF ROCHESTER, priority 2002, published 2008).

Molecules are shown by their SMILES.

For data set [1], the system named is hot flashes in post-menopausal women. Briefly: Oral administration to patients experiencing hot flashes as symptoms of postmenopausal hormone variation. The following applies: for side effects: human, in vivo, po. From the text:
Administration of L-Norleucine to Patients Experiencing Hot Flashes as Symptoms of Postmenopausal Hormone Variation […]

Data set [2] deals with hot flashes as a result of the post-partum state. The following applies: L-methionine 1 g bid orally.
The test system of data set [3] is palmar hyperhidrosis. The following applies: L-methionine 1 g bid orally.
The conditions of data set [4]: high-dose oral L-methionine; van der Griend et al. 2002; cited from earlier work.
For data set [5] the following is noted: Backonja et al. 1998; Rowbotham et al. 1998; cited from earlier work.

Turning to `CCCC[C@H](N)C(=O)O` [L-norleucine], the “reduction in hot flashes” value is given as 70% in data set [1] (Example 4 Patient No. 1, 6 hot flashes/day at baseline, oral L-norleucine 1.5 grams 2x/day, starting 10 days after initiating, maintained for 3.5 months) and 87% in data set [1] (Example 4 Patient No. 2, 8 hot flashes/day at baseline, oral L-norleucine 1 gram 2x/day, starting 4 days after initiating, maintained for 1.5 months). Further, the side effects entry in data set [1] is “No side effects”.

Turning to `CSCC[C@H](N)C(=O)O` [L-methionine], the “improvement in hot flash frequency” value was found to be 90% in data set [1] (Patient No. 1, about 10 hot flashes per day, L-methionine 1 gram tid orally, after three weeks, benefit persisted for 3 months of therapy); 90% in data set [1] (Patient No. 2, about 15 hot flashes per day, L-methionine 1 g tid orally, after three weeks, benefit persisted for 5 months of therapy); 100% in data set [2] (person, 3 severe nighttime and 2 moderate daytime hot flashes per day, after three weeks). In data set [1] (Patient No. 1, L-methionine 500 mg three times daily for two weeks), the change in symptoms entry is on record as “without noticing an appreciable change”. For the same molecule, in data set [1] (Patient No. 3, about 7 hot flashes per day, L-methionine 500 mg tid orally, after three weeks), the “improvement in nighttime hot flash frequency” value was 66%. Moreover, the “improvement in both nighttime and daytime hot flash severity” value in data set [1] (Patient No. 3, L-methionine 500 mg tid orally, after three weeks) came out at 50%. In addition, the side effects entry in data set [1], in data set [2] and in data set [3] was “No side effects” throughout. The “reduction in the subjective severity of palmar hyperhidrosis” value in data set [3] (person, after 3 weeks) came to 50%. Besides, the “increase in serum homocysteine levels” value in data set [4] is 10 fold.

Take `NCC1(CC(=O)O)CCCCC1` [gabapentin, Gabapentin, reference compound]: the tolerability result in data set [1] (Example 1 Patient No. 1, gabapentin therapy for several days) is given as “unable to tolerate the drug due to severe dizziness”. Moreover, the “patient withdrawal rate due to side effects (most often sleepiness and dizziness)” value in data set [5] is recorded as “approximately 13%”.
